Data: the supplement of paper PMC10307832

Key:
Test in all cases: relative viability (nuclei count vs DMSO), 5 days (fraction); higher = more cells survive
IPA-3 + Linsitinib = compound: C1=CC=C2C(=C1)C=CC(=C2SSC3=C(C=CC4=CC=CC=C43)O)O [IPA-3] + C[C@]1(O)C[C@@H](c2nc(-c3ccc4ccc(-c5ccccc5)nc4c3)c3c(N)nccn32)C1 [Linsitinib] (partner 1 µM)
Method in brief: (§1)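 Lung cancer cell lines were seeded in 1536-well plates and dosed by pin tool the next day, with either a single drug or a fixed anchor-drug dose combined with five library-drug doses (not always all listed) spaced in √10 steps. Five days later, one step fixed the cells and stained their nuclei (final 0.05% Triton X-100, 1% formaldehyde, 1 ug/ml Hoechst), and nuclei were counted on 4× images. Relative viability is the nuclei count in treated wells divided by the count in vehicle wells, and each value is the median of duplicate plates.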

Doramapimod + Decitabine = compound: Cc1ccc(-n2nc(C(C)(C)C)cc2NC(=O)Nc2ccc(OCCN3CCOCC3)c3ccccc23)cc1 [Doramapimod] + Nc1ncn([C@H]2C[C@H](O)[C@@H](CO)O2)c(=O)n1 [Decitabine] (partner 2 µM)
Method in brief: as §1

Doramapimod + Foretinib = compound: Cc1ccc(-n2nc(C(C)(C)C)cc2NC(=O)Nc2ccc(OCCN3CCOCC3)c3ccccc23)cc1 [Doramapimod] + COc1cc2c(Oc3ccc(NC(=O)C4(C(=O)Nc5ccc(F)cc5)CC4)cc3F)ccnc2cc1OCCCN1CCOCC1 [Foretinib] (partner 0.25 µM)
Method in brief: as §1

RAF265 + Alpelisib = compound: Cn1c(Nc2ccc(C(F)(F)F)cc2)nc2cc(Oc3ccnc(-c4ncc(C(F)(F)F)[nH]4)c3)ccc21 [RAF265] + Cc1nc(NC(=O)N2CCC[C@H]2C(N)=O)sc1-c1ccnc(C(C)(C)C(F)(F)F)c1 [Alpelisib] (partner 2 µM)
Method in brief: as §1

Row | Cell Line | relative viability (IPA-3 + Linsitinib; first compound 0.2 µM) | relative viability (IPA-3 + Linsitinib; first compound 0.6325 µM) | relative viability (IPA-3 + Linsitinib; first compound 2 µM) | relative viability (IPA-3 + Linsitinib; first compound 6.325 µM) | relative viability (IPA-3 + Linsitinib; first compound 20 µM) | relative viability (Doramapimod + Decitabine; first compound 0.02 µM) | relative viability (Doramapimod + Decitabine; first compound 0.06325 µM) | relative viability (Doramapimod + Decitabine; first compound 0.2 µM) | relative viability (Doramapimod + Decitabine; first compound 0.6325 µM) | relative viability (Doramapimod + Decitabine; first compound 2 µM) | relative viability (Doramapimod + Foretinib; first compound 0.02 µM) | relative viability (Doramapimod + Foretinib; first compound 0.06325 µM) | relative viability (Doramapimod + Foretinib; first compound 0.2 µM) | relative viability (Doramapimod + Foretinib; first compound 0.6325 µM) | relative viability (Doramapimod + Foretinib; first compound 2 µM) | relative viability (RAF265 + Alpelisib; first compound 0.01 µM) | relative viability (RAF265 + Alpelisib; first compound 0.03162 µM) | relative viability (RAF265 + Alpelisib; first compound 0.1 µM) | relative viability (RAF265 + Alpelisib; first compound 0.3162 µM) | relative viability (RAF265 + Alpelisib; first compound 1 µM)
1 | LC-2-ad | 0.885 | 0.845 | 0.86 | 0.795 | 0.86 | 0.828 | 0.776 | 0.793 | 0.854 | 0.768 | 0.927 | 0.882 | 0.865 | 0.559 | 0.807 | 0.771 | 0.727 | 0.724 | 0.35 | 0.202
2 | SK-LU-1 | 1.44 |  | 1.27 | 0.893 | 1.11 | 0.636 | 0.617 | 0.662 | 0.637 | 0.592 | 0.805 | 0.82 | 0.847 | 0.873 | 0.759 | 0.972 | 0.494 | 0.493 | 0.506 | 0.363
3 | EKVX | 1.1 | 1.06 | 1.05 | 0.97 | 1.43 | 0.404 | 0.313 | 0.289 | 0.31 | 0.239 | 0.831 | 0.829 | 0.789 | 0.746 | 0.764 | 0.863 | 0.842 | 0.944 | 0.516 | 0.624
4 | HCC-827 | 0.916 | 0.943 | 0.935 | 0.917 | 0.925 | 0.34 | 0.38 | 0.326 | 0.243 | 0.211 | 1.07 | 1.06 | 1.13 | 1.04 | 0.703 | 0.984 | 1.02 | 1.01 |  | 0.735
5 | NCI-H650 | 0.89 | 0.966 | 0.877 | 0.788 | 1.07 | 0.326 | 0.339 | 0.35 | 0.323 | 0.325 | 1.07 | 1.12 | 1.18 | 1.08 | 1.03 | 1.35 | 1.17 | 1.21 | 0.852 | 0.398
6 | EPLC-272H | 1.16 | 1.13 | 1.22 | 1.14 | 1.41 | 0.377 | 0.389 | 0.361 |  | 0.394 | 0.776 | 0.658 | 0.788 | 0.934 | 0.57 | 0.847 | 0.792 | 0.801 | 0.478 | 0.367
7 | A-427 | 1.13 | 0.951 | 1.18 | 1.12 | 1.13 | 0.588 | 0.557 | 0.536 |  | 0.541 | 1.02 | 1.15 | 1.12 |  | 0.997 | 1.17 | 1.01 | 0.976 | 0.723 | 0.402
8 | NCI-H647 | 1.52 | 1.01 | 1.11 | 0.641 | 0.38 | 0.44 | 0.331 | 0.39 | 0.418 | 0.365 | 0.903 | 1.07 | 1.25 | 1.29 | 1.16 | 0.923 | 0.933 | 0.594 | 0.477 | 0.585
9 | NCI-H1975 | 1.06 | 1.01 | 1.02 | 1.03 | 1.09 | 0.384 | 0.451 | 0.335 | 0.386 | 0.301 | 0.961 | 0.965 | 0.952 | 0.988 | 0.924 | 0.589 | 0.427 | 0.306 | 0.234 | 0.173
10 | NCI-H358 | 0.789 | 0.687 | 0.792 | 0.686 | 0.882 | 0.209 | 0.203 | 0.197 | 0.232 | 0.205 | 0.579 | 0.563 | 0.682 | 0.826 | 0.63 | 0.984 | 0.6 | 0.477 | 0.382 | 0.282
11 | PC-3 [JPC-3] | 0.965 | 0.904 | 0.977 | 0.994 | 0.922 | 0.834 | 0.816 | 0.857 | 0.888 | 0.766 | 1.14 | 1.11 | 1.15 | 1.23 | 1.1 | 1 | 0.993 | 1.08 | 0.331 | 0.644
12 | NCI-H596 | 1.3 | 0.993 | 1.04 | 1.09 | 1.14 | 1 | 0.97 | 1.02 | 0.995 | 1 | 0.907 | 0.766 | 1.01 | 0.782 | 0.855 | 0.561 | 0.444 | 0.495 | 0.513 | 0.359
13 | RERF-LC-KJ | 0.965 | 0.876 | 0.875 | 0.811 | 1.01 | 0.733 | 0.669 | 0.663 | 0.684 | 0.669 | 0.87 | 0.955 | 0.884 | 0.9 | 0.869 | 0.791 | 0.573 | 0.851 | 0.625 | 0.584
14 | NCI-H322M | 1.01 | 0.941 | 0.987 | 0.947 | 0.978 | 0.722 | 0.671 | 0.736 | 0.785 | 0.706 | 1.11 | 0.913 | 1.08 | 1.05 | 1.05 | 0.811 | 0.784 | 0.544 | 0.28 | 0.265
15 | COR-L 105 | 1.07 | 0.98 | 0.843 | 0.542 | 0.962 | 0.602 | 0.641 | 0.718 | 0.802 | 0.676 | 1.03 | 0.834 | 1.04 | 1.34 | 0.917 | 1.09 | 0.948 | 1.16 | 0.603 | 0.461
16 | NCI-H1993 | 0.707 | 0.688 | 0.761 | 0.782 | 0.612 | 0.537 | 0.578 | 0.511 | 0.668 | 0.53 | 0.844 | 0.759 | 0.808 | 0.778 | 0.68 | 0.648 | 0.648 | 0.77 | 0.761 | 0.715
